Data on 20 compounds can be found in patent publication US12065436B2, “Cardiac sarcomere inhibitors” (Cytokinetics, Inc., priority 2018, dated 2024).

Where two headings read alike, the source gives them in different places.

The target of assay [1] is bovine cardiac myofibrils (full-length cardiac myosin ATPase in the native sarcomere) (Bos taurus (Bovine), UniProt Q9BE39). As to the kind of experiment: Skinned bovine cardiac myofibril ATPase assay (PK/LDH-coupled). It counts as biochemical. The note with it: Ca2+ activating to 75% of maximal rate; for CDMF75 IC15: concentration giving 15% inhibition; for IC50: read-out: CDMF75 IC50. The procedure, abridged:
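Inhibition of steady-state ATPase read at 340 nm through a PK/LDH-coupled NADH system (0.5 mM NADH, 1.5 mM PEP). Detergent-skinned bovine cardiac myofibrils, 1 mg/mL, were tested at pH 6.8 in PIPES/MgCl2 with 50 μM ATP and calcium adjusted to give pCa50 or pCa75 activation.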

The subject of assay [2] is rat cardiac contractility (left ventricle fractional shortening). Kind of assay: Echocardiography of acute effect on rat cardiac contractility, oral gavage. It counts as in vivo, Sprague Dawley rats. The note with it: for inhibition in vivo at 8 mg/kg / IC50 / inhibition in vivo at 6 mg/kg / inhibition in vivo at 10 mg/kg: Rattus norvegicus; for inhibition in vivo at 8 mg/kg / inhibition in vivo at 6 mg/kg / inhibition in vivo at 10 mg/kg: oral gavage; for IC50 / IC10: oral dosing, estimated; for IC50: plasma concentration at which fractional shortening is 50% of pre-dose baseline; for IC10: plasma concentration at which. As to the method: Assessment of in vivo cardiac function by echocardiography was performed in male Sprague Dawley rats under isoflurane (1-3%) anesthesia. 2-D M-mode images of the left ventricle were acquired in the parasternal long-axis view before, during, and after administration of compounds by continuous IV infusion or oral gavage. In vivo fractional shortening was determined by M-mode image analysis with the following calculation: ((End diastolic diameter−end systolic diameter)/end diastolic diameter×100). For continuous IV infusion experiments, three pre-dose baseline M-mode images were taken at 1 minute intervals prior to infusion of compound. Compounds were formulated in 50% Propylene Glycol (PG): 16% Captisol: 10% dimethylacetamide (DMA) and delivered via a jugular vein catheter at the rate of 1 mL/kg/h. During infusion, M-mode images were taken at 5 minute intervals. The infusion stopped when fractional shortening reached up to a 60% reduction from baseline. Blood samples were taken to determine the plasma concentration of the compounds. Data was reported as an estimated IC50 value, which is the concentration at which fractional shortening is 50% of the pre-dose baseline contractility.
For oral dosing studies, three pre-dose baseline M-Mode images were taken at 1 minute intervals prior to compound administration. Compounds were formulated in a 0.5% hydroxypropyl methylcellulose 2910 (HPMC 2910): 0.1% Tween 80 suspension and delivered as a single dose (5 mL/kg) by oral gavage. Rats were lightly anesthetized for M-Mode echocardiography measurements at select time points over a 24 hour period. Different dose levels were evaluated for each compound. The compound effect on cardiac fractional shortening at the highest dose evaluated is presented in Table D as a percent reduction of baseline fractional shortening (=100%).
Concurrent with echocardiography measurements, blood samples were taken to determine the corresponding compound plasma concentration.

Where [3] appears, read: 1 h, 1-2 h post dose, read-out: FS (% reduction from baseline) at 1-2 h post dose (Mean ± S.D.).
[4] abbreviates: 4 h post dose, read-out: FS (% reduction from baseline) at 4 h post dose (Mean ± S.D.).

Chain of bovine cardiac myofibrils (full-length cardiac myosin ATPase in the native sarcomere) (Q9BE39 whole entry): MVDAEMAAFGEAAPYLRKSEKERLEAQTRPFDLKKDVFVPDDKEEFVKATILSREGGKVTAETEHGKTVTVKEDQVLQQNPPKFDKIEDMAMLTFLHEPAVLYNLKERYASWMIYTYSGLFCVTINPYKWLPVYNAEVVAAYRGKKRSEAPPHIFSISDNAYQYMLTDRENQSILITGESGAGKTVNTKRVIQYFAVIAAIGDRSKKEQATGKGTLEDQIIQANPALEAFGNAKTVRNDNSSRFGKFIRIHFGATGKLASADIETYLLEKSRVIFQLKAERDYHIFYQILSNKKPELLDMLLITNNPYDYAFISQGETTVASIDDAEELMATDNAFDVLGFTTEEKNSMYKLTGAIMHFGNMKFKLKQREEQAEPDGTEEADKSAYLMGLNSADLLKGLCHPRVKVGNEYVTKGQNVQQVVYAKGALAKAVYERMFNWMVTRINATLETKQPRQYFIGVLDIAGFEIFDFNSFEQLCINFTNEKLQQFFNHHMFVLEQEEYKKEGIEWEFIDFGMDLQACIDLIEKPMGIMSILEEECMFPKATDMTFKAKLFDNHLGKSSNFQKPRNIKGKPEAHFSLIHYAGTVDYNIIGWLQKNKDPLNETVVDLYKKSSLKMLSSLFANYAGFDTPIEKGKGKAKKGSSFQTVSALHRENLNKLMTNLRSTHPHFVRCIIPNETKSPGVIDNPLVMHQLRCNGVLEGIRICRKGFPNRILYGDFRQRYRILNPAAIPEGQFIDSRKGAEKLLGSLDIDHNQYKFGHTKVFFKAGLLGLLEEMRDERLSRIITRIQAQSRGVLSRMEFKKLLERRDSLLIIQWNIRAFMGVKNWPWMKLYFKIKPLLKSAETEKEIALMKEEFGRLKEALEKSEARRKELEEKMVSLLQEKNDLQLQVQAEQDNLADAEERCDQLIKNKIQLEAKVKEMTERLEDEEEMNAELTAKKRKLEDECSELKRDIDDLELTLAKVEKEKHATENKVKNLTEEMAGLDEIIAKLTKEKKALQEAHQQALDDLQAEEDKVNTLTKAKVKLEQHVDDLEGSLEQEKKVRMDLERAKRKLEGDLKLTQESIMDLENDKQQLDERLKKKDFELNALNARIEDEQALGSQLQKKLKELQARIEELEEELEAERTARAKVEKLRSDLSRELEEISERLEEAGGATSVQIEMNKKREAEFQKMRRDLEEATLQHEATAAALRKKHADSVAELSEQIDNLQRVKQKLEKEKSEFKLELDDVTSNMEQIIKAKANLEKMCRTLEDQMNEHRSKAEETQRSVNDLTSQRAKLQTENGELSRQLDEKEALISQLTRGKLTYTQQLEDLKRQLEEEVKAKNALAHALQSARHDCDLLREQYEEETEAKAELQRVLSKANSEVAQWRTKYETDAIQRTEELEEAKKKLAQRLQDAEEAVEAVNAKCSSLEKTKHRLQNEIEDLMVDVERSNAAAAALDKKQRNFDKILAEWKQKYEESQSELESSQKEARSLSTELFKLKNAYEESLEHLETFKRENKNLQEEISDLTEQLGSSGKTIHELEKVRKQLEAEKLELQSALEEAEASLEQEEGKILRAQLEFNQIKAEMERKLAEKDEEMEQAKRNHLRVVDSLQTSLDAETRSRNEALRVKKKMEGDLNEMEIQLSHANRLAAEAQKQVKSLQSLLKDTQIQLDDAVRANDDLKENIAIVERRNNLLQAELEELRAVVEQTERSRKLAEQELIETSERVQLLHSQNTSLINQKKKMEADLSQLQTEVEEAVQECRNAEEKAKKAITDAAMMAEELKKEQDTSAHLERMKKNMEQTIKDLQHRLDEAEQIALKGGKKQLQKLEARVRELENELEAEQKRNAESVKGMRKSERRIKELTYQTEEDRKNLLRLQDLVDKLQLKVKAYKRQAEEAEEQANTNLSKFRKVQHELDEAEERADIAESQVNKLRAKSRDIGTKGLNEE
Chain of bovine cardiac myofibrils (full-length cardiac myosin ATPase in the native sarcomere) (P85100 whole entry partner): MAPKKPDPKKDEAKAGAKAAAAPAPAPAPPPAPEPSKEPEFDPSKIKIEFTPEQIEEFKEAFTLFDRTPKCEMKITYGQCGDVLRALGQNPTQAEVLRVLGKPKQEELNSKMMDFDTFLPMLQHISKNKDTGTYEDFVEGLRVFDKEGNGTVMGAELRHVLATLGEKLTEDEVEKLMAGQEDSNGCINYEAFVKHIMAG
Chain of bovine cardiac myofibrils (full-length cardiac myosin ATPase in the native sarcomere) (Q3SZE5 whole entry partner): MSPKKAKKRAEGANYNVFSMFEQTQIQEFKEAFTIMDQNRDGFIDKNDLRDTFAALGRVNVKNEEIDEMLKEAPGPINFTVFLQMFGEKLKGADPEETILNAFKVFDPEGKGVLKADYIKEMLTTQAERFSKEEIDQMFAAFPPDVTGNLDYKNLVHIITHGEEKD

For the compound `O=C(N[C@@H]1COc2cc(-c3noc(C(F)F)n3)ccc21)c1ccnc(CO)c1` [Compound 709, (S)-N-(6-(5-(difluoromethyl)-1,2,4-oxadiazol-3-yl)-2,3-dihydrobenzofuran-3-yl)-2-(hydroxymethyl)isonicotinamide], in assay [1], the “CDMF75 IC15” value is 600 nM and the IC50 (as a rule, the concentration that gives 50% inhibition) is 2300 nM. Moreover, in assay [2] (setting [3]), the inhibition in vivo at 8 mg/kg stood at 68 ± 2%. Besides, in assay [2], the IC50 was 4300 nM and the IC10 (usually the concentration at which the effect reaches the 10% level) was 1500 nM. Besides, in assay [2] (setting [4]), the inhibition in vivo at 8 mg/kg worked out at 31 ± 3%.

As for `CCc1nc(-c2ccc3c(c2)CC[C@H]3NC(=O)c2nnc(C)o2)no1` [Compound 617, (R)-N-(5-(5-ethyl-1,2,4-oxadiazol-3-yl)-2,3-dihydro-1H-inden-1-yl)-5-methyl-1,3,4-oxadiazole-2-carboxamide], in assay [1], the “CDMF75 IC15” value was 300 nM. The IC50 in assay [1] and in assay [2] was 1200 nM throughout. Further, the values for the inhibition in vivo at 6 mg/kg in assay [2] (setting [3]) and in assay [2] (setting [4]) were 64 ± 4% and 37 ± 7%, respectively. For the same compound, the IC10 in assay [2] is 300 nM.

As for `CCc1nc(-c2ccc3c(c2)CC[C@H]3NC(=O)c2cc(C)no2)no1` [Compound 565, (R)-N-(5-(5-ethyl-1,2,4-oxadiazol-3-yl)-2,3-dihydro-1H-inden-1-yl)-3-methylisoxazole-5-carboxamide], the “CDMF75 IC15” value in assay [1] turned out to be 300 nM. The 50% inhibitory concentration (IC50) in assay [1] was 1100 nM; in assay [2], 37000 nM. Moreover, the inhibition in vivo at 8 mg/kg came out at 55 ± 13% in assay [2] (setting [3]) and 43 ± 13% in assay [2] (setting [4]). For the same compound, the IC10 in assay [2] was 11000 nM.

Turning to `CCc1nc(-c2ccc3c(c2)CC[C@H]3NC(=O)c2ccc(=O)n(C)c2)no1` [Compound 589, (R)-N-(5-(5-ethyl-1,2,4-oxadiazol-3-yl)-2,3-dihydro-1H-inden-1-yl)-1-methyl-6-oxo-1,6-dihydropyridine-3-carboxamide], in assay [1], the “CDMF75 IC15” value worked out at 700 nM and the IC50 came to 2300 nM. Also, in assay [2] (setting [3]), the inhibition in vivo at 6 mg/kg worked out at 73 ± 12%. For the same compound, in assay [2], the IC50 is 1600 nM and the IC10 is 300 nM. In addition, the inhibition in vivo at 6 mg/kg in assay [2] (setting [4]) was determined as 46 ± 3%.

For `COCc1nc(-c2ccc3c(c2)CC[C@H]3NC(=O)c2nnc(C)o2)no1` [Compound 697, (R)-N-(5-(5-(methoxymethyl)-1,2,4-oxadiazol-3-yl)-2,3-dihydro-1H-inden-1-yl)-5-methyl-1,3,4-oxadiazole-2-carboxamide], in assay [1], the “CDMF75 IC15” value was 900 nM and the half-inhibitory concentration (IC50) turned out to be 3700 nM. Besides, in assay [2] (setting [3]), the inhibition in vivo at 10 mg/kg was 70 ± 2%. Moreover, in assay [2], the IC50 is 8300 nM and the IC10 is 3300 nM. For the same compound, the inhibition in vivo at 10 mg/kg in assay [2] (setting [4]) turned out to be 45 ± 3%.

Regarding `O=C(N[C@@H]1CCc2cc(-c3noc(C(F)F)n3)ccc21)c1cnn(CCO)c1` [Compound 528, (R)-N-(5-(5-(difluoromethyl)-1,2,4-oxadiazol-3-yl)-2,3-dihydro-1H-inden-1-yl)-1-(2-hydroxyethyl)-1H-pyrazole-4-carboxamide], in assay [1], the “CDMF75 IC15” value was determined as 1100 nM and the IC50 stood at 4900 nM.

As to `O=C(N[C@@H]1CCc2cc(-c3noc(C4CCC4)n3)ccc21)c1cnn(CCO)c1` [Compound 524, (R)-N-(5-(5-cyclobutyl-1,2,4-oxadiazol-3-yl)-2,3-dihydro-1H-inden-1-yl)-1-(2-hydroxyethyl)-1H-pyrazole-4-carboxamide], in assay [1], the “CDMF75 IC15” value is 1700 nM and the concentration for half-maximal inhibition (IC50) turned out to be 7300 nM.

As to `Cc1ncoc1C(=O)N[C@@H]1CCc2cc(-c3noc(C4CCC4)n3)ccc21` [Compound 409, (R)-N-(5-(5-cyclobutyl-1,2,4-oxadiazol-3-yl)-2,3-dihydro-1H-inden-1-yl)-4-methyloxazole-5-carboxamide], in assay [1], the “CDMF75 IC15” value is 200 nM and the IC50 stood at 700 nM.

With `Cc1noc(-c2ccc3c(c2)CC[C@H]3NC(=O)c2cccc(CO)c2)n1` [Compound 706, (R)-3-(hydroxymethyl)-N-(5-(3-methyl-1,2,4-oxadiazol-5-yl)-2,3-dihydro-1H-inden-1-yl)benzamide], in assay [1], the “CDMF75 IC15” value came out at 600 nM and the IC50 came out at 2500 nM.

`Cc1cc(-c2ccc3c(c2)CC[C@H]3NC(=O)c2cn[nH]c2C)no1` [Compound 432, (R)-5-methyl-N-(5-(5-methylisoxazol-3-yl)-2,3-dihydro-1H-inden-1-yl)-1H-pyrazole-4-carboxamide]: in assay [1], the “CDMF75 IC15” value is 800 nM and the IC50 stood at 2500 nM.

In the case of `Cc1cnc(C(=O)N[C@@H]2CCc3cc(-c4noc(C(F)F)n4)ccc32)o1` [Compound 681, (R)-N-(5-(5-(difluoromethyl)-1,2,4-oxadiazol-3-yl)-2,3-dihydro-1H-inden-1-yl)-5-methyloxazole-2-carboxamide], in assay [1], the “CDMF75 IC15” value was 1300 nM and the IC50 turned out to be 5900 nM.

Take `Cc1cc(C(=O)N[C@@H]2CCc3cc(-c4noc(C(C)C)n4)ccc32)ccn1` [Compound 392, (R)-N-(5-(5-isopropyl-1,2,4-oxadiazol-3-yl)-2,3-dihydro-1H-inden-1-yl)-2-methylisonicotinamide]: in assay [1], the “CDMF75 IC15” value stood at 900 nM and the IC50 turned out to be 2700 nM.

For the compound `CCOC(=O)N[C@@H]1CCc2cc(-c3noc(C(F)F)n3)ccc21` [Compound 278, ethyl (R)-(5-(5-(difluoromethyl)-1,2,4-oxadiazol-3-yl)-2,3-dihydro-1H-inden-1-yl)carbamate], in assay [1], the “CDMF75 IC15” value is 1300 nM and the IC50 amounted to 5200 nM.

Regarding `O=C(NC1CCCC1)N[C@@H]1CCc2cc(-c3noc(C(F)F)n3)ccc21` [Compound 298, (R)-1-cyclopentyl-3-(5-(5-(difluoromethyl)-1,2,4-oxadiazol-3-yl)-2,3-dihydro-1H-inden-1-yl)urea], in assay [1], the “CDMF75 IC15” value came out at 39200 nM and the IC50 was over 39200 nM.

Turning to `O=C(N[C@@H]1CCc2cc(-c3noc(C(F)F)n3)ccc21)c1ccnc(CO)c1` [Compound 665, (R)-N-(5-(5-(difluoromethyl)-1,2,4-oxadiazol-3-yl)-2,3-dihydro-1H-inden-1-yl)-2-(hydroxymethyl)isonicotinamide], in assay [1], the “CDMF75 IC15” value was found to be 400 nM and the IC50 was 1800 nM.

As for `CCc1nc(-c2ccc3c(c2)CC[C@H]3NC(=O)c2ncc(C)s2)no1` [Compound 640, (R)-N-(5-(5-ethyl-1,2,4-oxadiazol-3-yl)-2,3-dihydro-1H-inden-1-yl)-5-methylthiazole-2-carboxamide], in assay [1], the “CDMF75 IC15” value turned out to be 500 nM and the IC50 was found to be 2100 nM.

`COCc1nc(-c2ccc3c(c2)CC[C@H]3NC(=O)c2ccnn2C)no1` [Compound 175, (R)-N-(5-(5-(methoxymethyl)-1,2,4-oxadiazol-3-yl)-2,3-dihydro-1H-inden-1-yl)-1-methyl-1H-pyrazole-5-carboxamide]: in assay [1], the “CDMF75 IC15” value is 400 nM and the 50% inhibitory concentration (IC50) was 1400 nM.

For the compound `COCC(=O)N[C@@H]1CCc2cc(-c3noc(C(F)F)n3)ccc21` [Compound 285, (R)-N-(5-(5-(difluoromethyl)-1,2,4-oxadiazol-3-yl)-2,3-dihydro-1H-inden-1-yl)-2-methoxyacetamide], in assay [1], the “CDMF75 IC15” value amounted to 9300 nM and the 50% inhibitory concentration (IC50) is over 39200 nM.

As for `CCc1nc(-c2ccc3c(c2)CCCC3NC(=O)c2cnn(C)c2)no1` (stereo not drawn) [Compound 515, N-(6-(5-ethyl-1,2,4-oxadiazol-3-yl)-1,2,3,4-tetrahydronaphthalen-1-yl)-1-methyl-1H-pyrazole-4-carboxamide], in assay [1], the “CDMF75 IC15” value turned out to be 4300 nM and the IC50 came out at 19500 nM.

In the case of `COCc1nc(-c2ccc3c(c2)CC[C@H]3NC(=O)c2cc(CO)ccn2)no1` [Compound 673, (R)-4-(hydroxymethyl)-N-(5-(5-(methoxymethyl)-1,2,4-oxadiazol-3-yl)-2,3-dihydro-1H-inden-1-yl)picolinamide], in assay [1], the “CDMF75 IC15” value was 2800 nM and the IC50 came out at 13000 nM.
